The values that follow come from US20240408071A1, “NOVEL COMBINATION OF SEROTONIN RECEPTOR (5-HTR2B) ANTAGONIST AND AN IMMUNOMODULATOR AND CHEMOTHERAPEUTIC DRUGS FOR INHIBITION OF CANCER” (NATIONAL CENTRE FOR CELL SCIENCE, priority 2021, published 2024).

For one assay, the system named is OT-II CD4 T cells. Nature of the assay: OT-II peptide-specific proliferation of CFSE-tagged OT-II CD4 T cells in vitro. The assay is classed as cell-based, mouse. The conditions noted are these: BW-723C86 10 μM, OT-II peptide (Ova323-339), 5 days (FIG. 12A-B). As for the experimental part:
FIG. 12 depicts that 5-HTR2B signalling affects the antigen-specific proliferation of CD4 T cells: (A-B) Total CD4 T cells were harvested from the lymph node of OT-II mice and they were tagged with CFSE and cultured in vitro in the presence or absence of OT-II peptide (Ova323-339), IL-2, 5-HTR2B agonist BW-723C86 (10 μM), Serotonin (20 μM) or 5-HTR2B antagonist RS-127445 (15 μM) for 5 days. After 5 days the proliferation of OT-II tetramer^+ CD4 T cells was measured and plotted as histogram overlay (A) or as statistical data (B). (C-D) Flow cytometric data and statistical analysis of the percentage of intra-tumoral OT-II-tetramer^+ IFNγ^+ CD4 T cell population from the control and RS-127445 treated MC38-ova tumor-bearing mice. (E-F) Flow cytometric data and statistical analysis of the percentage of intra-tumoral OT-II-tetramer^+ IFNγ^+ CD4 T cell population from the control and RS-127445 treated MC38-ova tumor-bearing mice. […]
A simple adoptive transfer experiment was performed to study the enhancement of CTL response in general or antigen-specific. […] The CFSE-tagged total lymph node cells from […] were cultured in the presence or absence of OT-II peptide (Ova323-339) 5-HTR2B agonist (BW-723C86), serotonin, and 5-HTR2B antagonist (RS-127445) as indicated in the figure for 5 days and the proliferation was measured (FIG. 12A-B). […]

In another assay the test system is MC38 tumor. Nature of the assay: CD31+ micro-blood vessel count in MC38 tumor sections (IHC, angiogenesis). The assay is classed as in vivo, mice. Particulars: MC38 tumor harvested after 20 days of tumor inoculation. How it is done: FIG. 6 depicts that 5-HTR2B signalling in colon cancer affects cell proliferation and viability: Colon cancer MC38 cells were treated with serotonin (100 μM), 5-HTR2B agonist (BW-723C86; 50 μM), or 5-HTR2B antagonist (SB-215505; 50 μM) for 48 hours, and cell cycle analysis was performed by propidium iodide staining using flow cytometry. MC38 cells were also treated with a graded dose of 5-HTR2B agonist (BW-723C86) or serotonin. MTT assay was performed to measure cell viability. (A) After treatment with 5-HTR2B agonist BW-723C86, serotonin, or 5-HTR2B antagonist SB-215505, the relative cell cycle analysis is shown. (B) Relative cell viability data of MC38 cells following treatment of graded doses of 5-HTR2B agonist BW-723C86 or serotonin are shown. The data shown are representative of one of the three independent experiments. (C) MC38 tumor sections from the control tumor and 5-HTR2B antagonist treated tumor were stained for CD31 and the number of CD31^+ micro-blood vessels/mm^2 of tissue sections was counted and plotted to observe angiogenesis. […]
For fluorescence-based immunohistochemical staining, tissues were embedded in OCT tissue freezing media (Fisher Scientific) and stored at −80° C. […] The images were captured using Olympus FV3000 confocal microscope (Waltham, Massachusetts), and the images were analysed using Cellsens software (Olympus; Waltham, Massachusetts). […]

`CC(N)Cc1c[nH]c2ccc(OCc3cccs3)cc12` (centres unmarked) [BW-723C86]: the “OT-II peptide-specific proliferation of OT-II CD4 T cells” value in the assay on OT-II CD4 T cells is on record as “significantly reduced”.
As to `CC(C)c1cc(-c2ccc(F)c3ccccc23)nc(N)n1` [RS-127445], the “number of CD31+ micro-blood vessels/mm^2 in the tumor area” value in the assay with MC38 tumor is reported as “reduced the number of micro-blood vessels/mm^2”.
